Values of other authors in patent US20080213374A1, “NANOPARTICULATE SORAFENIB FORMULATIONS” (Elan Pharma International Limited, priority 2006, published 2008).

solubility in PEG 400 (PEG 400) | solubility in aqueous media (aqueous media) | solubility in ethanol (ethanol) | solubility in water | SMILES
soluble | practically insoluble | slightly soluble | practically insoluble | CNC(=O)c1cc(Oc2ccc(NC(=O)Nc3ccc(Cl)c(C(F)(F)F)c3)cc2)ccn1.Cc1ccc(S(=O)(=O)O)cc1 [Sorafenib tosylate, 4-(4-{3-[4-Chloro-3-(trifluoromethyl)phenyl]ureido}phenoxy)-N2-methylpyridine-2-carboxamide 4-methylbenzenesulfonate]
– | – | – | practically insoluble | CNC(=O)c1cc(Oc2ccc(NC(=O)Nc3ccc(Cl)c(C(F)(F)F)c3)cc2)ccn1 [Sorafenib]
